Measurements reported in patent US20180363044A1, “COMPOSITIONS AND METHODS FOR IMPROVING THE THERMAL STABILITY OF NUCLEIC ACID AMPLIFICATION REAGENTS” (Roche Molecular Systems, Inc., priority 2017, published 2018).

Assay: Stability study: heat stress storage, UPLC analysis of degradation
Type: physicochemical
Method: Samples containing either 1 mM deoxyadenosine triphosphate (dATP), or 1 mM deoxyadenosine tetraphosphate (dA4P) or 1 mM dATP+1 mM dA4P were suspended in a buffer containing 40% DMSO/0.75M KOAc were stored for 18 hours at either 65° C. The samples were then run in a UPLC column and analyzed for degradation of the starting products.

Molecule	active substrate remaining (buffer, 18 h, 1 mM)	active substrate remaining (1 mM in buffer containing 40% DMSO/0.75M KOAc, stored 18 hours at 65° C., UPLC)
Nc1ncnc2c1ncn2[C@H]1C[C@H](O)[C@@H](COP(=O)(O)OP(=O)(O)OP(=O)(O)O)O1 [dATP, deoxyadenosine triphosphate]	51%	–
deoxyadenosine tetraphosphate [dA4P]	–	approximately 70%
